Source: paper PMC10982501, “Synthesis and biological evaluation of novel benzothiazole derivatives as potential anticancer and antiinflammatory agents” (Frontiers in Chemistry, 2024)

Tests used:
A431 cells [1] = assay: MTT cell proliferation assay, A431; format: cell-based, human; conditions: Homo sapiens, A-431, 48 h; for IC50: read-out: IC50 (mean ± SD) A431; for inhibition at 10 µM: read-out: A431 cells inhibition rate
Method: (§1) Beas-2b, A431, A549 and H1299 cells were cultured in 96-well plates (5 × 10^3 cells/well) for 16 h, respectively. Subsequently, positive compound 4i and 25 newly synthesized compounds were added at a final concentration of 10 μM or gradient concentrations (0.01, 0.1, 0.5, 1, 5 and 10 μM), co-incubated with the cells for 48 h. MTT (M8180, Solarbio) solutions (5 mg/mL) were then added and incubated for 4 h in the dark. Then, formazan crystals were dissolved with DMSO (D8371, Solarbio), followed by shaking on a shaker (DRAGONLAB, China) for 10 min. Finally, absorbance at 490 nm wavelength for each well was measured with Microplate reader (Molecular Devices, United States) ([Tang et al., 2020]; [Lee et al., 2021]). The results are expressed as mean ± SD from three independent experiments. Cells inhibition rates or IC50 values were calculated using GraphPad Prism 9.5.0.

A549 cells [2] = assay: MTT cell proliferation assay, A549; format: cell-based, human; conditions: Homo sapiens, A549, 48 h; for IC50: read-out: IC50 (mean ± SD) A549; for inhibition at 10 µM: read-out: A549 cells inhibition rate
Method: as §1

H1299 cells = assay: MTT cell proliferation assay, H1299; format: cell-based, human; conditions: Homo sapiens, NCI-H1299, 48 h; for IC50: read-out: IC50 (mean ± SD) H1299; for inhibition at 10 µM: read-out: H1299 cells inhibition rate
Method: as §1

A431 cells [3] = assay: Flow cytometry analysis of cell cycle, A431; format: cell-based, human; conditions: A431, 24 h
Method: (§2) The A431 and A549 cells were cultured in 6-well plates (1×10^5 cells/mL) for 16 h. Subsequently, they were treated with different concentrations (1, 2 and 4 μM) of either B7 or 4i (4 μM) for 24 h. Cells were collected, mixed by adding 75% ethanol with shaking on a vortex shaker, and placed in the refrigerator at 4°C for overnight fixation. The cells were incubated with PI-Raze solution for 15 min at room temperature, protected from light, according to the instructions of BD Cycletest Plus DNA Reagent Kit (340242, BD), and detected by FACS Calibur flow cytometry ([Oh et al., 2023]), and subsequent data analysis was performed using FlowJo 10.6.2.

A549 cells [4] = assay: Flow cytometry analysis of cell cycle, A549; format: cell-based, human; conditions: A549, 24 h
Method: as §2

[5] = tested on: non-small cell lung cancer cell line HOP-92; set-up: method as in Noolvi et al., 2012; conditions: ref Noolvi et al., 2012; cited from earlier work
[6] = Oil-water partition coefficient (log P) measurement; format: physicochemical; conditions: n-octanol/water, room temperature
Method: The partition coefficient between n-octanol and water (log Po/w) is the classical descriptor for Lipophilicity ([Daina et al., 2017]). The test methodology followed previously published protocols ([Wang et al., 2021]). At room temperature, two large Erlenmeyer flasks were taken and filled with n-octanol and water, respectively. The flasks were placed in a constant temperature shaker at 150 rpm for 24 h to saturate the solvents. The mixtures were then transferred to separating funnels under normal pressure to obtain water-saturated n-octanol and n-octanol-saturated water for subsequent use. The target compound (2 mg) was accurately weighed and placed in a 2 mL brown volumetric flask. Anhydrous methanol was added to ultrasonically dissolve the compound, and the mixture was diluted to volume and thoroughly shaken to prepare a 1 mg/mL stock solution. The stock solution was further diluted to obtain 1, 1.5, 2, 2.5, 5 and 10 μg/mL reference solutions for construction of a standard curve using a UV-visible spectrophotometer. An excess amount of the analyte was dissolved in water-saturated n-octanol, and the mixture was shaken at 150 rpm for 24 h at constant temperature to obtain a saturated solution. The saturated solution was allowed to stand, centrifuged, and 1 mL of the supernatant was transferred to a 4 mL centrifuge tube. N-octanol saturated water (1 mL) was added, and the mixture was shaken at 150 rpm for 24 h at constant temperature. After standing for 8 h, the mixture was centrifuged. Appropriate amounts of the n-octanol phase before and after equilibration were diluted with methanol, and concentrations were determined from the standard curve to obtain C0 and C1. The concentration in the n-octanol saturated aqueous phase, Cw, was calculated as Cw = C0 - C1. Thus, log Po/w = […].

Beas-2b cells = assay: MTT cell proliferation and toxicity assay, Beas-2b; format: cell-based, human; conditions: Homo sapiens, BEAS-2B, 48 h, read-out: Beas-2b cells inhibition rate
Method: as §1

IL-6 = assay: ELISA of IL-6 in LPS-stimulated RAW264.7 cells; format: cell-based, mouse; conditions: 10 μM, RAW264.7, LPS, 24 h, vs blank control
Method: (§3) RAW264.7 cells were cultured in 6-well plates (2×10^5 cells/well) for 24 h and treated with 25 newly synthesized compounds (final concentration at 10 μM) for 30 min, respectively. Subsequently, the cells were stimulated with 1 μL of LPS (500 ng/mL) (L8880, Solarbio). After 24 h, the supernatant was collected and analyzed using an ELISA kit (EK206 and EK182, MULTISCIENCES) to quantify the levels of inflammatory cytokines IL-6 and TNF-α ([Li et al., 2021]).

TNF-α = assay: ELISA of TNF-α in LPS-stimulated RAW264.7 cells; format: cell-based, mouse; conditions: 10 μM, RAW264.7, LPS, 24 h, vs blank control
Method: as §3

A431 cells [7] = assay: Flow cytometry analysis of cell apoptosis, A431; format: cell-based, human; conditions: A431, 1, 2 and 4 μM, 24 h
Method: (§4) The A431 and A549 cells were cultured in 6-well plates (1×10^5 cells/mL) for 16 h. Subsequently, cells were treated with different concentrations (1, 2 and 4 μM) of either B7 or 4i for 24 h. Then, the cells were collected, washed, and stained with the FITC Annexin V Apoptosis Detection Kit I (556547, BD) ([Jiang et al., 2017]). Sample testing was performed using a FACS Calibur Flow Cytometer (BD, United States), and subsequent data analysis was performed using FlowJo 10.6.2.

A549 cells [8] = assay: Flow cytometry analysis of cell apoptosis, A549; format: cell-based, human; conditions: A549, 1, 2 and 4 μM, 24 h
Method: as §4

A431 cells [9] = assay: Wound healing analysis of cell migration, A431; format: cell-based, human; conditions: A431, 4 μM, 48 h, compared to 4i
Method: (§5) The A431 and A549 cells were cultured in 6-well plates (5×10^5 cells/well). When the cell confluency reached approximately 90%, used a sterile 10 μL pipette tip to create three parallel scratches evenly. Subsequently, rinsed with PBS to remove floating cells, and then treated with B7 and 4i at final concentrations of 4 μM. Captured images using a microscope camera system (Nikon, JPN) at 0 and 48 h post-treatment ([Xu et al., 2023]).

A549 cells [10] = assay: Wound healing analysis of cell migration, A549; format: cell-based, human; conditions: A549, 4 μM, 48 h, compared to 4i
Method: as §5

AKT = assay: Western blot, AKT phosphorylation; format: cell-based, human; conditions: A431 and A549 cells, 1, 5 and 10 μM, 2 h
Method: (§6) The A431 and A549 cells were cultured in 6-well plates (2×10^5 cells/well) for 2 h and treated with different concentrations of B7(1, 5, and 10 μM) or 4i (10 μM). The corresponding cells were collected, washed with PBS (P1020, Solarbio), and lysed with RIPA buffer (R0010, Solarbio) to extract the total proteins. The extracted protein was loaded, subjected to SDS-PAGE electrophoresis (Bio-Rad) ([Xu et al., 2023]), and then the protein was transferred to a PDVF membrane (IPVH00010, Millipore) and incubated in the corresponding Primary Antibody AKT (9272, Cell Signaling Technology), phospho-AKT (4058, Cell Signaling Technology), ERK (A4782, ABclonal Technology), phospho-ERK (AP0974, ABclonal Technology) and GAPDH (AB0037, Abways Technology) overnight. Then, the Primary Antibody was recovered and enzyme-labeled secondary antibodies Goat Anti-Rabbit IgG HRP (H + L) (A0208, Beyotime Technology) were used. Finally, Imaging was performed on a gel Imaging System (Bio-Rad, United States) using the Ultra-sensitive ECL Chemiluminescence Assay Kit (P0018AS, Beyotime Technology).

ERK = assay: Western blot, ERK phosphorylation; format: cell-based, human; conditions: A431 and A549 cells, 1, 5 and 10 μM, 2 h
Method: as §6

[11] = tested on: common anti-tumor receptor kinases; assay: Activity of common anti-tumor receptor kinases
human cancer cell lines = tested on: human cancer cell lines; set-up: method as in Mortimer et al., 2006; conditions: particularly non-small cell lung, colon and breast cancer lines; ref Mortimer et al., 2006; cited from earlier work

Row | SMILES | IC50 (A431 cells [1]) [µM] | IC50 (A549 cells [2]) [µM] | IC50 (H1299 cells) [µM] | logP [6] | cell cycle arrest, in words (A431 cells [3]) | cell cycle arrest, in words (A549 cells [4]) | inhibition at 10 µM (A431 cells [1]) [%] | inhibition at 10 µM (A549 cells [2]) [%] | inhibition at 10 µM (H1299 cells) [%] | inhibition at 10 µM (Beas-2b cells) [%] | effect on IL-6 expression (IL-6) | effect on TNF-α expression (TNF-α) | other results
1 | Clc1cccc(Cl)c1Nc1nc2cccc(Cl)c2s1 [4i, 7-chloro-N-(2,6-dichlorophenyl) benzo[d] thiazole-2-amine, reference compound] | 2 ± 0.41 | 1.09 ± 0.32 | 2.48 ± 0.53 | – | G2 phase cell cycle arrest effect | G2 phase cell cycle arrest effect | – | – | – | – | – | – | anticancer activity against HOP-92, in words [5]: promising anticancer activity
2 | COc1ccc(-c2nc3cc(F)ccc3s2)cc1OC [PMX610, 2-(3,4-dimethoxyphenyl)-5-fluorobenzothiazole] | – | – | – | – | – | – | – | – | – | – | – | – | in vitro anti-tumor properties in human cancer cell lines, in words (human cancer cell lines): potent and selective in vitro anti-tumor properties

Further lines, with some results ahead:

Row | IC50 (A431 cells [1]) [µM] | IC50 (A549 cells [2]) [µM] | IC50 (H1299 cells) [µM] | logP [6] | SMILES | cell cycle arrest, in words (A431 cells [3]) | cell cycle arrest, in words (A549 cells [4]) | inhibition at 10 µM (A431 cells [1]) [%] | inhibition at 10 µM (A549 cells [2]) [%] | inhibition at 10 µM (H1299 cells) [%] | inhibition at 10 µM (Beas-2b cells) [%] | effect on IL-6 expression (IL-6) | effect on TNF-α expression (TNF-α) | other results
3 | – | – | – | 2.35 ± 0.21 | CCOC(=O)COc1ccccc1-c1nc2ccccc2s1 [A1, Ethyl 2-(2-(benzo[d]thiazol-2-yl)phenoxy)acetate] | – | – | 45.6 ± 1.21 | 42.3 ± 1.15 | 49.5 ± 0.84 | 10.2 ± 0.92 | significant inhibitory effects | significant inhibitory effects | –
4 | 1.51 ± 0.2 | 0.96 ± 0.24 | 1.68 ± 0.12 | 3.25 ± 0.24 | O=[N+]([O-])c1ccc(CNc2nc3ccc(Cl)cc3s2)cc1 [B7, 6-chloro-N-(4-nitrobenzyl)benzo[d]thiazol-2-amine] | G2 phase cell cycle arrest effect | G2 phase cell cycle arrest effect | – | – | – | 16.6 ± 1.36 | significant inhibitory effects | significant inhibitory effects | apoptosis rate, in words (A431 cells [7]): gradual increase in the apoptosis rate; apoptosis rate, in words (A549 cells [8]): gradual increase in the apoptosis rate; migration inhibitory effect, in words (A431 cells [9]): slightly surpassed that of 4i; inhibitory effect on cell migration, in words (A549 cells [10]): stronger inhibitory effect; AKT protein phosphorylation, in words (AKT): markedly inhibit; ERK protein phosphorylation, in words (ERK): markedly inhibit; impact on common anti-tumor receptor kinases, in words [11]: minimal impact
5 | – | – | – | 5.82 ± 0.22 | Clc1ccc2nc(N(Cc3ccccc3)Cc3ccccc3)sc2c1 [D2, N,N-dibenzyl-6-chlorobenzo[d]thiazol-2-amine] | – | – | 43.6 ± 1.39 | 40.3 ± 1.06 | 46.9 ± 2.71 | 24.3 ± 3.1 | significant inhibitory effects | significant inhibitory effects | –
